The source made the active and inactive calls. The calls are words filed in the database; no cut-off is given here.
Tests used:
[1] = target: T1, Heat shock protein HSP90 (Homo sapiens) (UniProt P07900+P08238); assay: Binding affinity to HSP90 in human SKBR3 cell lysates at 3 nM up to 24 hrs by fluorescence polarization assay; format: protein assay; conditions: SK-BR-3
[2] = target: T2, Heat shock protein HSP 90-beta (Homo sapiens, UniProt P08238); assay: Binding affinity to recombinant HSP90beta (unknown origin) by fluorescence polarization assay; conditions: read-out: Kd(app)
T2 sequence (P08238 whole entry): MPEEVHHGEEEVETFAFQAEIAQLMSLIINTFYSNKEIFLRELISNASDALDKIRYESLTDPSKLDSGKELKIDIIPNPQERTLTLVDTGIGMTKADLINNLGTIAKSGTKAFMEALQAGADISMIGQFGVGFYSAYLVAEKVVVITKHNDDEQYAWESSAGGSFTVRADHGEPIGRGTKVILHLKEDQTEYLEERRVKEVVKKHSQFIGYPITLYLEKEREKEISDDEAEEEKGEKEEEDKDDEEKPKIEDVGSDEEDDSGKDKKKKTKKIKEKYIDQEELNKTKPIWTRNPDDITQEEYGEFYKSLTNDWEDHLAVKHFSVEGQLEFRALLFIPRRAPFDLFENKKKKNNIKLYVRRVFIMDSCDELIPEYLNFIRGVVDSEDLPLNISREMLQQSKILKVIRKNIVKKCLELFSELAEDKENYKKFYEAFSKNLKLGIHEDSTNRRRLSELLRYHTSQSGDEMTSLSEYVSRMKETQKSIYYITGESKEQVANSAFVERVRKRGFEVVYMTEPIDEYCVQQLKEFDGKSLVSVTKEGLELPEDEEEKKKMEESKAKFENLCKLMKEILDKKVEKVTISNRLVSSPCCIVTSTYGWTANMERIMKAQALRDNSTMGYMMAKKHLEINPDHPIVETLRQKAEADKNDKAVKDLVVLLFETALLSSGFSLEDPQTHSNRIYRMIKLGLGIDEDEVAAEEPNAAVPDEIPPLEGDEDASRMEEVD

[3] = target: T3, Heat shock protein 75 kDa, mitochondrial (Homo sapiens, UniProt Q12931)
T3 sequence (Q12931 whole entry): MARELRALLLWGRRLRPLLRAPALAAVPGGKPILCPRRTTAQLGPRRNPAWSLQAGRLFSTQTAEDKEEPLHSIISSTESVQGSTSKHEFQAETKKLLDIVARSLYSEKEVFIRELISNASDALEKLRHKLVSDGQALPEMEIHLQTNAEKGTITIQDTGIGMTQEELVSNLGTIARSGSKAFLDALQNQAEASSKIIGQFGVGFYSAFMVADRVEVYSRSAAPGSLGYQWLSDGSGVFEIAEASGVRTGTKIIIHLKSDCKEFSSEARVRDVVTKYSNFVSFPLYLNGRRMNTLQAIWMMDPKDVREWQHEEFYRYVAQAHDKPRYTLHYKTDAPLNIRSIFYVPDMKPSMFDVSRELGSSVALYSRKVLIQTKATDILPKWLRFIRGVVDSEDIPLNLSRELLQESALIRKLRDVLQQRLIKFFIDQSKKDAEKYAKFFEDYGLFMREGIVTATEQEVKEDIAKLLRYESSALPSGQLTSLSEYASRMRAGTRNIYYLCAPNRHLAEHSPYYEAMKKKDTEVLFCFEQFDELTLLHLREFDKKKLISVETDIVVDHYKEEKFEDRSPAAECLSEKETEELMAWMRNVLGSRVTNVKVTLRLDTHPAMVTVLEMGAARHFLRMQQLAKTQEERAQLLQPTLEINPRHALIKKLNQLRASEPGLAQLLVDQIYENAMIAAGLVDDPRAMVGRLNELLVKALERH
Description: Binding affinity to recombinant human Trap-1 by fluorescence polarization assay

[4] = target: T4, Heat shock protein HSP 90-alpha (Homo sapiens, UniProt P07900); assay: Binding affinity to HSP90alpha (unknown origin) by fluorescence polarization assay; conditions: read-out: Kd(app)
Endoplasmin [5] = target: T5, Endoplasmin (Canis lupus familiaris, UniProt P41148); assay: Binding affinity to dog Grp94 by fluorescence polarization assay; conditions: read-out: Kd(app)
T5 sequence (P41148 whole entry): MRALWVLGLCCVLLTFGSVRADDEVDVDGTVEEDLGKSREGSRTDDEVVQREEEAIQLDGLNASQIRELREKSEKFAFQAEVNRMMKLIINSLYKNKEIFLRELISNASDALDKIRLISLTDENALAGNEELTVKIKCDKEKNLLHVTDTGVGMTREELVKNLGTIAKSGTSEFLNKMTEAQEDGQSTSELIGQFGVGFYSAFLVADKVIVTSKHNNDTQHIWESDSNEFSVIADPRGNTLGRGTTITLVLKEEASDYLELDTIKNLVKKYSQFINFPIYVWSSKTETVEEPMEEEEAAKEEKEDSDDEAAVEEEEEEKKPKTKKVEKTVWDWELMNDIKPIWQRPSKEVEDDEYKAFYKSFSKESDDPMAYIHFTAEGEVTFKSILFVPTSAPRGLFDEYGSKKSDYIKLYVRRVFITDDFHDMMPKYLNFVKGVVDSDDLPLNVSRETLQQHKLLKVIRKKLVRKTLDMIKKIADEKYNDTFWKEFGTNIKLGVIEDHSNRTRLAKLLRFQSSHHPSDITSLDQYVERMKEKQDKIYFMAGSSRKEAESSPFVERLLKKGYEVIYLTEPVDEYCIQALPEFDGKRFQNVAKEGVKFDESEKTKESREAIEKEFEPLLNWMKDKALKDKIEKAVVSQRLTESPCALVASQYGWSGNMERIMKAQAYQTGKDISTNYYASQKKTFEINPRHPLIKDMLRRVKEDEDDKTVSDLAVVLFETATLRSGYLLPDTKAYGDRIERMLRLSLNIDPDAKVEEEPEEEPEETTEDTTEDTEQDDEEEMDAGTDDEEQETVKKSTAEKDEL

[6] = target: T1, Heat shock protein HSP90 (Homo sapiens); assay: Binding affinity to HSP90 in human SKBR3 cell lysates at 3 nM after 8 hrs by fluorescence polarization assay; format: protein assay; conditions: SK-BR-3
[7] = target: T2, Heat shock protein HSP 90-beta
[8] = target: T1, Heat shock protein HSP90 (Homo sapiens); assay: Binding affinity to HSP90 (unknown origin); format: protein assay
[9] = target: Endoplasmin (Homo sapiens) (UniProt P14625); assay: Binding affinity to GRP94 (unknown origin)
Endoplasmin (Homo sapiens), sequence (P14625 whole entry): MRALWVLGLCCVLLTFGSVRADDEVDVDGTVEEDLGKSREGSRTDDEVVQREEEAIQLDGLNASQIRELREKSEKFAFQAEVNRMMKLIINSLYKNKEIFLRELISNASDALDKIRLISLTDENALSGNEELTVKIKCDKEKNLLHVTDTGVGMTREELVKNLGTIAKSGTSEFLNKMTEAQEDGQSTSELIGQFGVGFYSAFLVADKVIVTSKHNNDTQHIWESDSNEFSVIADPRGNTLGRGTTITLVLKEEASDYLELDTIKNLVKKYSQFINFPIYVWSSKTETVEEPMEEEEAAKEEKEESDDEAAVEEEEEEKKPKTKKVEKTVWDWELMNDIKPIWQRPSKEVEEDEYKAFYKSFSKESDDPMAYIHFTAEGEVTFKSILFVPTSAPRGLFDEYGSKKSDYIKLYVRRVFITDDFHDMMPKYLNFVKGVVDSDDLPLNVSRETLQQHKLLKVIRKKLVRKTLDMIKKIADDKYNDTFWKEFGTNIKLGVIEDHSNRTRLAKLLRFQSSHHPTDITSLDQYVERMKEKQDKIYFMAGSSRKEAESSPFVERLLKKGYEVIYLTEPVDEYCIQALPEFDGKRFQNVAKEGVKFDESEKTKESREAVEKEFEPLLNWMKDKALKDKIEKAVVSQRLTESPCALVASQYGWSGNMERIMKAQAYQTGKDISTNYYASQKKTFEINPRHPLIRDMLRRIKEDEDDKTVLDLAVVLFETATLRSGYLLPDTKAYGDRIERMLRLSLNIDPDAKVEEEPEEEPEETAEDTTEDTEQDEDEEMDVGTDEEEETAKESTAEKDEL

Endoplasmin [10] = target: T5, Endoplasmin
[11] = target: T2, Heat shock protein HSP 90-beta; assay: Binding affinity to HSP90beta (unknown origin)
[12] = target: T4, Heat shock protein HSP 90-alpha
[13] = target: T3, Heat shock protein 75 kDa, mitochondrial; remark: listed apart in the source
[14] = target: T4, Heat shock protein HSP 90-alpha; assay: Binding affinity to HSP90alpha (unknown origin)
Homo sapiens = species: Homo sapiens; assay: Ratio of binding affinity to HASP90 (unknown origin) to TRAP1 (unknown origin)
[15] = target: T6, Heat shock protein 75 kDa, mitochondrial (Homo sapiens) (UniProt Q12931); assay: Binding affinity to TRAP1 (unknown origin)
T6 sequence (whole entry): T3 sequence (Q12931 whole entry)

Q: With `CC(C)N(CCCn1c(Sc2cc3c(cc2I)OCO3)nc2c(N)ncnc21)C(=S)Nc1ccc(-c2c3ccc(=O)cc-3oc3cc(O)ccc23)c(C(=O)O)c1` as the molecule, how does the Activity [1] read?
A: The Activity was “Active”.

Q: And the Kd [2]?
A: Its Kd is 2.8 nM.

Q: What about the Kd [3] of the same molecule?
A: Its Kd is 5.8 nM.

Q: What about the Kd [4] of the same molecule?
A: Its Kd is 3.9 nM.

Q: And the Kd (Endoplasmin [5])?
A: The Kd was 30.7 nM.

Q: How did the Activity [1] turn out when `Nc1ncnc2c1nc(Sc1cc3c(cc1I)OCO3)n2CCCCNC(=S)Nc1ccc(-c2c3ccc(=O)cc-3oc3cc(O)ccc23)c(C(=O)O)c1` was run?
A: The Activity was “Active”.

Q: With `Nc1ncnc2c1nc(Sc1cc3c(cc1I)OCO3)n2CCCCCCNC(=S)Nc1ccc(-c2c3ccc(=O)cc-3oc3cc(O)ccc23)c(C(=O)O)c1` as the molecule, how does the Activity [1] read?
A: Its Activity is “Active”.

Q: `Nc1ncnc2c1nc(Sc1cc3c(cc1I)OCO3)n2CCCNC(=S)Nc1ccc(-c2c3ccc(=O)cc-3oc3cc(O)ccc23)c(C(=O)O)c1` was tested. Which Activity [1] did it give?
A: The Activity was “Active”.

Q: And the Activity [6]?
A: Its Activity is “Active”.

Q: What about the Kd [2] of the same molecule?
A: The Kd was 1.6 nM.

Q: And the Kd [4]?
A: Its Kd is 1.4 nM.

Q: And the Kd (Endoplasmin [5])?
A: Its Kd is 6.6 nM.

Q: `Nc1ncnc2c1ncn2[C@@H]1O[C@H](COP(=O)(O)OP(=O)(O)O)[C@@H](O)[C@H]1O` [ADENOSINE DIPHOSPHATE] was tested. Which IC50 [7] did it give?
A: Its IC50 is 42200 nM.

Q: What about the Activity [8] of the same molecule?
A: Its Activity is 41 µM.

Q: What about the Activity [9] of the same molecule?
A: The Activity was 2.3 µM.

Q: What about the IC50 (Endoplasmin [10]) of the same molecule?
A: The IC50 was 11400 nM.

Q: What about the Activity [11] of the same molecule?
A: Its Activity is 34 µM.

Q: What about the IC50 [12] of the same molecule?
A: The IC50 was 59300 nM.

Q: And the IC50 [13]?
A: The IC50 was 55600 nM.

Q: What about the Activity [14] of the same molecule?
A: Its Activity is 51 µM.

Q: Which results are given for `C=CCNC1=C2C[C@@H](C)C[C@H](OC)[C@H](O)[C@@H](C)/C=C(\C)[C@H](OC(N)=O)[C@@H](OC)/C=C\C=C(/C)C(=O)NC(=CC1=O)C2=O` [TANESPIMYCIN]?
A: IC50 (Endoplasmin [10]): 31 nM; IC50 [13]: 1500 nM

Q: For `Nc1ncnc2c1ncn2[C@@H]1O[C@H](COP(=O)(O)OP(=O)(O)OP(=O)(O)O)[C@@H](O)[C@H]1O` [ADENOSINE TRIPHOSPHATE], which IC50 [7] is on record?
A: The IC50 was 894000 nM.

Q: And the Ratio (Homo sapiens)?
A: Its Ratio is 10.

Q: What about the Activity [8] of the same molecule?
A: The Activity was 840 µM.

Q: And the Activity [9]?
A: The Activity was 3.4 µM.

Q: And the IC50 (Endoplasmin [10])?
A: Its IC50 is 3240 nM.

Q: And the IC50 [12]?
A: Its IC50 is 861000 nM.

Q: And the IC50 [13]?
A: The IC50 was 31300 nM.

Q: And the Activity [15]?
A: The Activity was 31.3 µM.

Q: How did the IC50 (Endoplasmin [10]) turn out when `CC(C)c1cc(-c2n[nH]c(=O)n2-c2ccc3c(ccn3C)c2)c(O)cc1O` [GANETESPIB] was run?
A: Its IC50 is 10 nM.

Q: Which results are given for `CO[C@H]1/C=C\C=C(/C)C(=O)NC2=CC(=O)C(NCCCCNC(=O)Cc3ccc4c(c3)C(C)(C)C3=[N+]4CCC4OC5CCN6C(=C5C=C34)C(C)(C)c3cc(S(=O)(=O)[O-])ccc36)=C(C[C@@H](C)C[C@H](OC)[C@H](O)[C@@H](C)/C=C(\C)[C@@H]1OC(N)=O)C2=O` (stereo partly specified)?
A: Kd [2]: 2.2 nM; Kd [3]: 51.8 nM; Kd [4]: 0.7 nM; Kd (Endoplasmin [5]): 2.5 nM

Q: `Nc1ncnc2c1nc(Sc1cc3c(cc1I)OCO3)n2CCCCCCCCNC(=S)Nc1ccc(-c2c3ccc(=O)cc-3oc3cc(O)ccc23)c(C(=O)O)c1` was tested. Which Activity [1] did it give?
A: Its Activity is “inactive”.

Source: ChEMBL document CHEMBL2417440, “Experimental and structural testing module to analyze paralogue-specificity and affinity in the Hsp90 inhibitors series” (J Med Chem, 2013)
